Among the data in US20100204119A1, “4-AMINO-5-OXO-7,8-DIHYDROPYRIMIDO[5,4-F][1,4]OXAZEPIN-6(5H)-YL PHENYL DERIVATIVES” (Pfizer Inc, priority 2009, published 2010) are IC50 values, retold here.

The structures appear in SMILES notation.

The term IC50 denotes the concentration at which inhibition is half-maximal. High values mean lower potency, low ones higher potency.

The target of this assay is T1, Human full-length diacylglycerol:acylCoA acyltransferase 1 (DGAT-1) (Homo sapiens, UniProt O75907).
T1 sequence (O75907 1-488): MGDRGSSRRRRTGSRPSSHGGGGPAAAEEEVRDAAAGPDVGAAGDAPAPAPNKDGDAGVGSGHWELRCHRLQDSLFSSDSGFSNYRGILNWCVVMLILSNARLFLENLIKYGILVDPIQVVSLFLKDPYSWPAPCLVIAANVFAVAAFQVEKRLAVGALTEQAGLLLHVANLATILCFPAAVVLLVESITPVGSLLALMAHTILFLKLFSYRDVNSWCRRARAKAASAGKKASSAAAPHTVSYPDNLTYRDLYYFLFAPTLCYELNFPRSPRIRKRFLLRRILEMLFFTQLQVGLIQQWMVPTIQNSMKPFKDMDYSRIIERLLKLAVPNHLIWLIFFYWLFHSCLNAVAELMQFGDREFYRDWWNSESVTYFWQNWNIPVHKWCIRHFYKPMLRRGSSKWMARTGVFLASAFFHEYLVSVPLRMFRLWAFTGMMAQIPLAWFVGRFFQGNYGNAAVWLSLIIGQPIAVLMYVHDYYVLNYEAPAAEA
Kind of assay: In vitro assay for inhibition of DGAT-1 activity (DGAT 1 Reduced Microsome Multidose Assay). To be noted: average where n > 1.

The mark [1] stands for this setting: Trial 1 Human IC50, Trial 1: as Trial 4 except microsomes at 25 μg/mL instead of 5 μg/mL.
Where [2] appears, read: Trial 4 Human IC50, Trial 4: eight concentrations of inhibitor, microsomes 5 μg/mL.
Setting [3] is: Trial 2 Human IC50, Trial 2: as Trial 4 except eleven concentrations of inhibitor instead of eight.
Where [4] appears, read: Trial 3 Human IC50, Trial 3: as Trial 2 except compounds serially diluted in a different laboratory.

Description: Human full-length diacylglycerol:acylCoA acyltransferase 1 (DGAT-1) was expressed in Sf9 insect cells which are then lysed and a crude membrane fraction (105,000×g pellet) was prepared.
Inhibitors in DMSO were pre-incubated with membranes before initiating the DGAT-1 reaction by the addition of decanoylCoA. […] The inhibitors were present at a range of eight concentrations to generate an apparent IC50 for each compound. […] Specifically, the eight concentrations used were 3 μM, 1 μM, 300 nM, 100 nM, 30 nM, 10 nM, 3 nM and 1 nM.
The reactions were allowed to proceed for 1.5 hours at room temperature and then terminated by the addition of 20 μl of EDTA (40 mM). Reaction mixture is then mixed by trituration with 30 μl of Microscint™-E (Perkin Elmer). […] Four separate trials were conducted. The method of analysis of Trial 1 was the same as Trial 4 (described above) except microsomes were utilized at 25 μg/mL instead of 5 μg/mL. The method of analysis of Trial 2 was the same as Trial 4 (described above) except eleven (11) concentrations of inhibitor were employed instead of eight (8). The method of analysis of Trial 3 was the same as Trial 2 except the compounds were serially diluted in a different laboratory.
Where this DGAT-1 inhibition assay was performed on a compound more than once, an average is provided for that compound.

Turning to `CN(Cc1ccc(F)cc1)C(=O)C[C@H]1CC[C@H](c2ccc(N3CCOc4ncnc(N)c4C3=O)cc2)CC1` [Example 6AK], under setting [1], the IC50 came to 18.1 nM. Take `CCC(O)(CC)c1ccc(N2C[C@@H](C)Oc3ncnc(N)c3C2=O)cc1` [Example 1AP, (8R)-4-Amino-6-[4-(1-ethyl-1-hydroxypropyl)phenyl]-8-methyl-7,8-dihydropyrimido[5,4-f][1,4]oxazepin-5(6H)-one]: the IC50 under setting [2] amounted to 29.4 nM. `Nc1ncnc2c1C(=O)N(c1ccc(C3CCN(C(=O)CC4CCOC4)CC3)cc1)CCO2` (stereo not drawn) [Example 7M] had an IC50 under setting [3] of 114 nM and an IC50 under setting [4] of 180 nM. In turn, `Nc1ncnc2c1C(=O)N(c1ccc([C@H]3CC[C@H](CC(=O)N4CCC(F)(F)CC4)CC3)cc1)CCO2` [Example 6L] showed an IC50 under setting [1] of 105 nM. Turning to `Nc1ncnc2c1C(=O)N(c1ccc([C@H]3CC[C@H](CC(=O)N4CCC[C@@H](O)C4)CC3)cc1)CCO2` [Example 6O], under setting [1], half-maximal inhibition (IC50) required 162 nM.

With `C[C@@H]1CN(c2ccc(C(C)(C)CO)cc2)C(=O)c2c(N)ncnc2O1` [Example 1AQ], under setting [2], the IC50 was 31 nM. In the case of `Nc1ncnc2c1C(=O)N(c1ccc(C3CCN(C(=O)CC4CCCO4)CC3)cc1)CCO2` (stereo not drawn) [Example 7R], the half-inhibitory concentration (IC50) reads like this: under setting [3], 50.1 nM; under setting [4], 170 nM. In turn, `CN(C)C(=O)CN(C)C(=O)C[C@H]1CC[C@H](c2ccc(N3CCOc4ncnc(N)c4C3=O)cc2)CC1` [Example 6AT] came in with an IC50 under setting [1] of 161 nM. As for `C[C@H](O)CC(=O)N1CCC(c2ccc(N3CCOc4ncnc(N)c4C3=O)cc2)CC1` [Example 7D], the half-maximal inhibitory concentration (IC50) by setting is: under setting [3], 98.2 nM; under setting [4], 267 nM. Under setting [1], `CCN(CCCCO)C(=O)C[C@H]1CC[C@H](c2ccc(N3CCOc4ncnc(N)c4C3=O)cc2)CC1` [Example 6N] displayed an IC50 of 37.5 nM. As to `CC(C)(C)OC(=O)N1CCC(c2ccc(N3CCOc4ncnc(N)c4C3=O)cc2)CC1` [Example 7B], the IC50 runs as follows: under setting [3], 55.1 nM; under setting [4], 30 nM. For `CCC(C)CN(CCO)C(=O)C[C@H]1CC[C@H](c2ccc(N3CCOc4ncnc(N)c4C3=O)cc2)CC1` (stereo partly drawn) [Example 6AH], under setting [1], 67 nM corresponded to half-maximal inhibition (IC50). Regarding `C[C@@H]1CN(c2ccc(C(C)(C)O)cc2)C(=O)c2c(N)ncnc2O1` [Example 1A-2, (8R)-4-amino-6-(4-(2-hydroxypropan-2-yl)phenyl)-8-methyl-7,8-dihydropyrimido[5,4-f][1,4]oxazepin-5(6H)-one], the IC50 under setting [2] came out at 61.4 nM. On to `CCOC1CCN(C(=O)C[C@H]2CC[C@H](c3ccc(N4CCOc5ncnc(N)c5C4=O)cc3)CC2)CC1` [Example 6AB], for which 54.7 nM corresponded to half-maximal inhibition under setting [1] (IC50). Compound `CCOC(C)(C)c1ccc(N2C[C@@H](C)Oc3ncnc(N)c3C2=O)cc1` [Example 1AK, (8R)-4-amino-6-[4-(1-ethoxy-1-methylethyl)phenyl]-8-methyl-7,8-dihydropyrimido[5,4-f][1,4]oxazepin-5(6H)-one] displayed an IC50 under setting [2] of 42.3 nM. Regarding `CC(C)[C@H](O)C(=O)N1CCC(c2ccc(N3CCOc4ncnc(N)c4C3=O)cc2)CC1` [Example 7U], the IC50 by setting is: under setting [3], 205 nM; under setting [4], 297 nM. `CC(c1cccnc1)N(C)C(=O)C[C@H]1CC[C@H](c2ccc(N3CCOc4ncnc(N)c4C3=O)cc2)CC1` (stereo partly drawn) [Example 6AQ] showed a 50% inhibitory concentration (IC50) under setting [1] of 87.5 nM.

For the compound `Nc1ncnc2c1C(=O)N(c1ccc([C@H]3CC[C@H](CC(=O)N4CCCC4CO)CC3)cc1)CCO2` (stereo partly drawn) [Example 6X], 100 nM corresponded to half-maximal inhibition under setting [1] (IC50). Compound `CC(C)(O)CC[C@H]1CC[C@H](c2ccc(N3CCOc4ncnc(N)c4C3=O)cc2)CC1` [Example 1A-1] gave an IC50 under setting [1] of 104 nM. Turning to `C[C@@H]1CN(c2ccc(C3(C(N)=O)CCCC3)cc2)C(=O)c2c(N)ncnc2O1` [Example 1AF, 1-{4-[(8R)-4-amino-8-methyl-5-oxo-7,8-dihydropyrimido[5,4-f][1,4]oxazepin-6(5H)-yl]phenyl}cyclopentanecarboxamide], inhibition under setting [2] was half-maximal at 117 nM (IC50). With `CO[C@@H]1CCN(C(=O)C[C@H]2CC[C@H](c3ccc(N4CCOc5ncnc(N)c5C4=O)cc3)CC2)C1` [Example 6BA], under setting [1], the IC50 is 60.1 nM. With `CC(C)c1ccc(N2C[C@@H](C)Oc3ncnc(N)c3C2=O)cc1` [Example 1K, (8R)-4-amino-6-(4-isopropylphenyl)-8-methyl-7,8-dihydropyrimido[5,4-f]-[1,4]oxazepin-5(6H)-one], the IC50 under setting [2] was 17.6 nM. As to `COC(C)(C)Cc1ccc(N2C[C@@H](C)Oc3ncnc(N)c3C2=O)cc1` [Example 1AG], it took 45.2 nM to reach half-maximal inhibition under setting [2] (IC50).

Regarding `CC(C)(C(N)=O)c1ccc(N2CCOc3ncnc(N)c3C2=O)cc1` [Example 1D, 2-[4-(4-amino-5-oxo-7,8-dihydropyrimido[5,4-f][1,4]oxazepin-6(5H)-yl)phenyl]-2-methylpropanamide], under setting [1], inhibition was half-maximal at 2750 nM (IC50). `C[C@@H]1CN(c2ccc(C(O)(C(F)(F)F)C(F)(F)F)cc2)C(=O)c2c(N)ncnc2O1` [Example 1V]: under setting [2], the IC50 was 39.5 nM.

For the compound `Cc1cc(CN(C)C(=O)C[C@H]2CC[C@H](c3ccc(N4CCOc5ncnc(N)c5C4=O)cc3)CC2)ccn1` [Example 6AZ], it took 67 nM to reach half-maximal inhibition under setting [1] (IC50). As for `Nc1ncnc2c1C(=O)N(c1ccc([C@H]3CC[C@H](CC(=O)N4CCC(CO)C4)CC3)cc1)CCO2` (stereo partly drawn) [Example 6T], the IC50 under setting [1] worked out at 125 nM. On to `CC1(C)C(=O)NCCN1C(=O)C[C@H]1CC[C@H](c2ccc(N3CCOc4ncnc(N)c4C3=O)cc2)CC1` [Example 6AE], for which inhibition under setting [1] was half-maximal at 75.5 nM (IC50). In turn, `Cc1nnc2n1CCN(C(=O)C[C@H]1CC[C@H](c3ccc(N4CCOc5ncnc(N)c5C4=O)cc3)CC1)C2` [Example 6Q] gave an IC50 under setting [1] of 240 nM. Still for that read-out and setting: to `Nc1ncnc2c1C(=O)N(c1ccc([C@H]3CC[C@H](CC(=O)N4CCCCC4CCO)CC3)cc1)CCO2` (stereo partly drawn) [Example 6AY] belongs 85.3 nM; to `CC(O)C1CCN(C(=O)C[C@H]2CC[C@H](c3ccc(N4CCOc5ncnc(N)c5C4=O)cc3)CC2)CC1` (stereo partly drawn) [Example 6P], 39.3 nM. For `C[C@@H]1CN(c2ccc(C3CC3)cc2)C(=O)c2c(N)ncnc2O1` [Example 1U], the IC50 under setting [2] was found to be 19.9 nM. `CCC(CC)(OC)c1ccc(N2C[C@@H](C)Oc3ncnc(N)c3C2=O)cc1` [Example 1AI, (8R)-4-amino-6-[4-(1-ethyl-1-methoxypropyl)phenyl]-8-methyl-7,8-dihydropyrimido[5,4-f][1,4]oxazepin-5(6H)-one] had an IC50 under setting [2] of 15.5 nM. Take `CC1(CO)CCCN(C(=O)C[C@H]2CC[C@H](c3ccc(N4CCOc5ncnc(N)c5C4=O)cc3)CC2)C1` (stereo partly drawn) [Example 6AN]: 71.3 nM corresponded to half-maximal inhibition under setting [1] (IC50). `Nc1ncnc2c1C(=O)N(c1ccc([C@H]3CC[C@H](CCC(=O)N4CCOCC4)CC3)cc1)CCO2` [Example 6BF]: under setting [1], inhibition was half-maximal at 60.1 nM (IC50). `C[C@@H]1CN(c2ccc(C(=O)N(C)C)cc2)C(=O)c2c(N)ncnc2O1` [Example 6BG] gave an IC50 under setting [2] of 1670 nM. Still for that read-out and setting: to `COc1nc(N)c2c(n1)O[C@H](C)CN(c1ccc(C(C)(C)C)cc1)C2=O` [Example 1N] belongs 44.5 nM. As to `Cc1ncoc1C(=O)N1CCC(c2ccc(N3CCOc4ncnc(N)c4C3=O)cc2)CC1` [Example 7K], the IC50 was determined as 130 nM under setting [3] and 258 nM under setting [4]. As for `CC(=O)N1CCN(C(=O)C[C@H]2CC[C@H](c3ccc(N4CCOc5ncnc(N)c5C4=O)cc3)CC2)CC1` [Example 6Y], under setting [1], it took 167 nM to reach half-maximal inhibition (IC50). As to `CC(C)c1ccc(N2CCOc3ncnc(N)c3C2=O)cc1` [Example 1H], the IC50 was found to be 17.1 nM under setting [3] and 26.3 nM under setting [4]. Compound `C[C@@H]1CN(c2ccc([C@H](O)C(C)(C)C)cc2)C(=O)c2c(N)ncnc2O1` [Example 1AD] gave an IC50 under setting [2] of 22.6 nM.
